Results published in patent publication US20260015322A1, “DELIVERY OF THERAPEUTIC ALKALOID COMPOUNDS” (priority 2022, published 2026).
Like-named read-outs stand apart in the source and are kept apart here. Marks after values point to notes of the source that are not given here.

Legend:
[1] = type: in vivo, male C57BL/6 mice; conditions: 323 IV 2 mg/kg, mice; for CL: marked NR (not reportable)
Protocol: Total fifteen male mice were used in this study with n=3 mice/time point with sparse sampling study design. Animals were administered through intravenous route with solution formulation of 323 at 2 mg/kg dose.
The extraction procedure for plasma/brain samples and the spiked plasma/brain calibration standards were identical (PMSF Stabilized Plasma and Brain used for Preparation of calibration standards): A 20 μL of study sample plasma/brain or spiked plasma/brain calibration standard was added to individual pre-labeled micro-centrifuge tubes followed by 200 μL of internal standard prepared in acetonitrile (Rosuvastatin+Cetrizine, 50 ng/mL) was added except for blank, where 200 μL of acetonitrile was added. Samples were vortexed for 5 minutes. Samples were centrifuged for 10 minutes at a speed of 4000 rpm at 4° C. Following centrifugation, 200 μL of clear supernatant was transferred in 96 well plates and analyzed using LC-MS/MS.
Brain samples were diluted (1-part of tissue: 2-part of buffer) and homogenized. The homogenate was submitted for bioanalysis and the concentrations (ng/mL) received were corrected with dilution factor (3×) and the final reported concentrations were represented in ng/g.
The plasma and brain concentration-time data of 323 and 001 were used for the pharmacokinetic analysis.

[2] = Plasma Stability Assay (Example A3), rat plasma; type: in vitro ADME; conditions: 10 μM, 37° C., prodrug remaining
Excerpt: (§1) The data is represented in the table below.

[3] = Metabolic Stability in Human Hepatocytes; type: in vitro ADME; conditions: cryopreserved human hepatocytes, 5×10^5 viable cells/mL, 37° C.
Protocol: A 2.5 uL aliquot of 100 μM test compound was incubated with 247.5 uL of cryopreserved hepatocytes suspended in serum-free incubation medium at 5×10^5 viable cells/mL. The mixture was incubated at 37° C. and shaken at 500 rpm for the designated time points (0.5, 15, 30, 60, 90, or 120 min). At each time point, 25 μL aliquot of incubation mixture was transferred to 125 μL of cold acetonitrile containing internal standard, followed by centrifugation for 30 min at 3,220 g. 100 μL of supernatant was mixed with 100 μL of distilled water for analysis by LC-MS/MS. Peak areas were determined from extracted ion chromatograms and in vitro half-life (t1/2) was determined from the concentration vs time regression slope, in vitro t1/2=0.693/k. Conversion of the in vitro t1/2 (in min) into the in vitro intrinsic clearance (in vitro CLint, in μL/min/10^6 cells) is done using: in vitro CLint=kV/N.

[4] = Plasma Stability Assay (Example A2), human plasma; type: in vitro ADME; conditions: 37° C., prodrug remaining
Protocol: (§2) Each test was carried out in duplicate for each time point; 0 min, 15 min, 30 min, 60 min, 120, 240 min. […]

[5] = Plasma Stability Assay (Example A3), human plasma; type: in vitro ADME; conditions: 10 μM, 37° C., prodrug remaining
Excerpt: as §1

[6] = Hydrolysis Assay - Condition 1 (SGF); type: physicochemical; conditions: Condition 1: SGF with pepsin pH 1.5, 37° C., 0.5 mM
Protocol: 50 uL of compound (10 mM) in DMSO was diluted into 950 uL of Simulated Gastric Fluid (SGF) with pepsin (pH 1.5) to a final concentration of 0.5 mM. The hydrolysis kinetics were conducted at 37° C. and measured by LCMS at a certain time interval.
(§3) The corresponding LCMS chromatogram were recorded and the conversions were calculated by integration of each peak.
(§4) • 1) LCMS spectra were obtained using Agilent 1200G1956A or SHIMADZU LCMS-2020. • Standard LCMS conditions were as follows (running time 1.55 minutes): • Acidic condition: Mobile Phase A: 0.0375% TFA in water (v/v). Mobile Phase B: 0.01875% TFA in acetonitrile (v/v); Column: Kinetex EVO C18 30*2.1 mm, 5 μm. • Basic condition: Mobile Phase A: 0.025% NH3·H2O in water (v/v). Mobile Phase B: Acetonitrile; Column: Kinetex EVO C18 2.1×30 mm, 5 μm. • 2) Conversion (%)=peak area 1/(peak area 1+peak area 2)*100%, peak area 1 is the integration of hydrolyzed product, peak area 2 is the integration of starting material.

[7] = Hydrolysis Assay - Condition 2 (DI Water); type: physicochemical; conditions: 25° C., 0.5 mM
Protocol: 50 uL of compound (10 mM) in DMSO was diluted into 950 uL of DI water to a final concentration of 0.5 mM. The hydrolysis kinetics were conducted at 25° C. and measured by LCMS at a certain time interval.
as §3, §4

[8] = Plasma Stability Assay (Example A2), mouse plasma; type: in vitro ADME; conditions: for Prodrug (%): Mouse Plasma, 37° C., prodrug remaining; for Metabolite (%): mouse
Protocol: as §2

[9] = Pharmacokinetics of 358, single IV 2 mg/kg, plasma and brain; type: in vivo, male C57BL/6 mice; conditions: 358 IV 2 mg/kg, mice
Protocol: Total fifteen male mice were used in this study with n=3 mice/time point with sparse sampling study design. Animals were administered through intravenous route with solution formulation of 358 at 2 mg/kg dose.
The extraction procedure for plasma/brain samples and the spiked plasma/brain calibration standards were identical (PMSF Stabilized Plasma and Brain used for Preparation of calibration standards):
A 20 μL of study sample plasma/brain or spiked plasma/brain calibration standard was added to individual pre-labeled micro-centrifuge tubes followed by 200 μL of internal standard prepared in acetonitrile (Rosuvastatin+Cetrizine, 50 ng/mL) was added except for blank, where 200 μL of acetonitrile was added. Samples were vortexed for 5 minutes. Samples were centrifuged for 10 minutes at a speed of 4000 rpm at 4° C. Following centrifugation, 200 μL of clear supernatant was transferred in 96 well plates and analyzed using LC-MS/MS.
Note: Brain samples were diluted (1-part of tissue: 2-part of buffer) and homogenized. The homogenate was submitted for bioanalysis and the concentrations (ng/mL) received were corrected with dilution factor (3×) and the final reported concentrations were represented in ng/g.
The plasma and brain concentration-time data of 358 and 001 were used for the pharmacokinetic analysis.

Question: Which Brain-Kp [1]; 323 does the source give for `COc1ccc([C@@]23CCC(OP4(=O)OCC(C)(C)CO4)=C[C@@H]2N(C)CC3)cc1OC` [Compound 323, 2-[[(3aS,7aS)-3a-(3,4-dimethoxyphenyl)-1-methyl-3,4,5,7a-tetrahydro-2H-indol-6-yl]oxy]-5,5-dimethyl-1,3,2λ5-dioxaphosphinane 2-oxide] here?
Answer: The Brain-Kp was 0.07.

Question: What about the “brain concentrations quantifiable up to” value [1]; 323 of the same molecule?
Answer: The value was ≤ 0.5 h.

Question: And the “Brain concentrations (mean)” value ([1]; 323, 0.08 h)?
Answer: The value was 22.15 ng/g.

Question: And the “Plasma concentrations (mean)” value ([1]; 323, 0.08 h)?
Answer: The value was 332.15 ng/mL.

Question: What about the “Brain concentrations (mean)” value ([1]; 323, 0.25 h) of the same molecule?
Answer: Its value is 8.97 ng/g.

Question: What about the “Plasma concentrations (mean)” value ([1]; 323, 0.25 h) of the same molecule?
Answer: The value was 91.59 ng/mL.

Question: And the “Plasma concentrations (mean)” value ([1]; 323, 0.5 h)?
Answer: The value was 26.34 ng/mL.

Question: And the “Brain concentrations (mean)” value ([1]; 323, 0.5 h, average of two values)?
Answer: The value was 4.43^d ng/g.

Question: What about the “Plasma concentrations (mean)” value ([1]; 323, 1 h) of the same molecule?
Answer: The value was 4.05 ng/mL.

Question: And the “Plasma concentrations (mean)” value ([1]; 323, 2 h, single value, excluded from data analysis)?
Answer: The value was 1.03^c ng/mL.

Question: And the “C0 (back extrapolated concentration)” value ([1]; 323 in Brain)?
Answer: Its value is 33.89 ng/mL.

Question: What about the T1/2 ([1]; 323 in Brain) of the same molecule?
Answer: Its T1/2 is 10.8 min.

Question: And the Vss ([1]; 323 in Brain)?
Answer: Its Vss is 61.73 L/kg.

Question: What about the CL ([1]; 323 in Brain) of the same molecule?
Answer: The CL was “NR (4350.55) mL/min/kg”.

Question: And the AUClast ([1]; 323 in Plasma)?
Answer: Its AUClast is 96.00 ng·h/mL.

Question: And the “C0 (back extrapolated concentration)” value ([1]; 323 in Plasma)?
Answer: Its value is 609.01 ng/mL.

Question: And the T1/2 ([1]; 323 in Plasma)?
Answer: The T1/2 was 10.2 min.

Question: And the Vss ([1]; 323 in Plasma)?
Answer: Its Vss is 3.25 L/kg.

Question: And the CL ([1]; 323 in Plasma)?
Answer: The CL was “NR (343.84) mL/min/kg”.

Question: And the “Prodrug (%)” value ([2]; 0 min)?
Answer: The value was 100.00%.

Question: What about the “Prodrug (%)” value ([2]; 10 min) of the same molecule?
Answer: Its value is >99%.

Question: And the “Prodrug (%)” value ([2]; 30 min)?
Answer: The value was 95.5%.

Question: And the “Prodrug (%)” value ([2]; 60 min)?
Answer: The value was 82.0%.

Question: What about the “Prodrug (%)” value ([2]; 120 min) of the same molecule?
Answer: The value was 58.8%.

Question: What about the “Prodrug (%)” value ([2]; 240 min) of the same molecule?
Answer: Its value is 34.0%.

Question: And the “t1/2” value [3]?
Answer: The value was 327 min.

Question: What about the “Prodrug (%)” value ([4]; 0 min) of the same molecule?
Answer: Its value is 100%.

Question: What about the “Prodrug (%)” value ([4]; 15 min) of the same molecule?
Answer: The value was 76.6%.

Question: And the “Prodrug (%)” value ([4]; 30 min)?
Answer: Its value is 64.5%.

Question: And the “Prodrug (%)” value ([4]; 60 min)?
Answer: Its value is 38.1%.

Question: And the “Prodrug (%)” value ([4]; 120 min)?
Answer: Its value is 12.8%.

Question: And the “Prodrug (%)” value ([4]; 240 min)?
Answer: Its value is 1.60%.

Question: What about the “Prodrug (%)” value ([5]; 0 min) of the same molecule?
Answer: Its value is 100.00%.

Question: And the “Prodrug (%)” value ([5]; 10 min)?
Answer: Its value is 86.9%.

Question: And the “Prodrug (%)” value ([5]; 30 min)?
Answer: Its value is 70.8%.

Question: And the “Prodrug (%)” value ([5]; 60 min)?
Answer: Its value is 52.7%.

Question: And the “Prodrug (%)” value ([5]; 120 min)?
Answer: The value was 27.0%.

Question: And the “Prodrug (%)” value ([5]; 240 min)?
Answer: The value was 9.3%.

Question: And the “Conversion (%)” value ([6]; 1 min)?
Answer: Its value is 0%.

Question: What about the “Conversion (%)” value ([6]; 5 min) of the same molecule?
Answer: The value was 0%.

Question: What about the “Conversion (%)” value ([6]; 30 min) of the same molecule?
Answer: The value was 0%.

Question: And the “Conversion (%)” value ([6]; 1 h)?
Answer: Its value is 0%.

Question: And the “Conversion (%)” value ([6]; 4 h)?
Answer: Its value is 0%.

Question: What about the “Conversion (%)” value ([6]; 24 h) of the same molecule?
Answer: Its value is 0%.

Question: What about the “Conversion (%)” value ([7]; 1 min) of the same molecule?
Answer: Its value is 0%.

Question: What about the “Conversion (%)” value ([7]; 5 min) of the same molecule?
Answer: Its value is 0%.

Question: What about the “Conversion (%)” value ([7]; 30 min) of the same molecule?
Answer: Its value is 0%.

Question: And the “Conversion (%)” value ([7]; 1 h)?
Answer: Its value is 0%.

Question: What about the “Conversion (%)” value ([7]; 4 h) of the same molecule?
Answer: The value was 0%.

Question: What about the “Conversion (%)” value ([7]; 24 h) of the same molecule?
Answer: The value was 0%.

Question: And the “Prodrug (%)” value ([8]; 0 min)?
Answer: The value was 100.0%.

Question: What about the “Prodrug (%)” value ([8]; 15 min) of the same molecule?
Answer: Its value is >99%.

Question: And the “Prodrug (%)” value ([8]; 30 min)?
Answer: The value was >99%.

Question: And the “Prodrug (%)” value ([8]; 60 min)?
Answer: The value was 94.1%.

Question: And the “Prodrug (%)” value ([8]; 120 min)?
Answer: Its value is 71.9%.

Question: And the “Prodrug (%)” value ([8]; 240 min)?
Answer: The value was 50.3%.

Question: For `COc1ccc([C@@]23CCC(OC(=O)OC(C)(C)C)=C[C@@H]2N(C)CC3)cc1OC` [Compound 358, [(3aS,7aS)-3a-(3,4-dimethoxyphenyl)-1-methyl-3,4,5,7a-tetrahydro-2H-indol-6-yl]tert-butyl carbonate], which “brain concentrations quantifiable up to” value [9] is on record?
Answer: Its value is ≤ 0.08 h.

Question: What about the “plasma concentrations quantifiable up to” value [9] of the same molecule?
Answer: The value was “up to 0.25 h”.

Question: And the “Metabolite (%)” value ([8]; 0 min, 5 µM)?
Answer: The value was 58.8%.

Question: What about the “Metabolite (%)” value ([8]; 15 min, 5 µM) of the same molecule?
Answer: The value was 65.4%.

Question: And the “Metabolite (%)” value ([8]; 30 min, 5 µM)?
Answer: The value was 73.2%.

Question: What about the “Metabolite (%)” value ([8]; 60 min) of the same molecule?
Answer: Its value is 76.9%.

Question: And the “Metabolite (%)” value ([8]; 120 min)?
Answer: Its value is 61.8%.

Question: And the “Metabolite (%)” value ([8]; 240 min)?
Answer: Its value is 62.2%.
